Measurements as given in patent US20210138025A1, “CATIONIC PEPTIDES WITH IMMUNOMODULATORY AND/OR ANTI-BIOFILM ACTIVITIES” (priority 2018, published 2021).
No end group written: not given here.

Tests used:
E. coli O157:H7 = assay: Biofilm inhibition, static microtitre plate assay, crystal violet (Table 17); settings: BM2 minimal media
[1] = tested on: Salmonella typhimurium (ATCC 14028); assay: as above; settings: BM2 minimal media
[2] = tested on: S. aureus (methicillin resistant clinical isolate C623); assay: Biofilm inhibition, static microtitre plate assay, crystal violet (Table 17; FIG. 19); settings: 10% tryptic soy broth with 0.1% glucose
P. aeruginosa (PAO1) = assay: as above; settings: BM2 minimal media
[3] = tested on: Bordatella bronchiseptica (Bb); type: cell-based
Experimental: (§1) The following strains were assessed vs. Staphylococcus epidermidis (Se), Pseudomonas aeruginosa (Pa), Streptococcus dysgalactiae (Sd), Pasteurella multocida (Pm), Streptococcus agalactiae (Sa), Streptococcus uberis (Su), Streptococcus suis (Ss), Mannheimia haemolytica (Mh), Bordatella bronchiseptica (Bb), Histophilus somnus (Hs), and Staphylococcus pseudintermedius (Sp) (Table 18) for Minimal Inhibitory Concentrations (MIC). Italics=excellent activity (less than or equal to 4 μg/ml).

Histophilus somnus (Hs) [4] = type: cell-based
Experimental: as §1

[5] = tested on: Mannheimia haemolytica (Mh); type: cell-based
Experimental: as §1

[6] = tested on: Pasteurella multocida (Pm); type: cell-based
Experimental: as §1

[7] = tested on: Pseudomonas aeruginosa (Pa); type: cell-based
Experimental: as §1

[8] = tested on: Staphylococcus epidermidis (Se); type: cell-based
Experimental: as §1

[9] = tested on: Staphylococcus pseudintermedius (Sp); type: cell-based
Experimental: as §1

[10] = tested on: Streptococcus agalactiae (Sa); type: cell-based
Experimental: as §1

[11] = tested on: Streptococcus dysgalactiae (Sd); type: cell-based
Experimental: as §1

Streptococcus suis (Ss) [12] = type: cell-based
Experimental: as §1

[13] = tested on: Streptococcus uberis (Su); type: cell-based
Experimental: as §1

E. coli (Ec) [14] = type: cell-based; settings: Ec
S. aureus (Sau) [15] = type: cell-based; settings: Sau
[16] = tested on: Bordatella bronchiseptica (Bb); type: cell-based; remark: listed apart in the source
Experimental: (§2) The same strains as in Table 18 were assessed for Minimal Biofilm Inhibitory Concentrations (MBIC) (Table 19). Italics=excellent activity (less than or equal to 4 μg/ml). ND=Not determined. Peptides 3013, 3015 and 3016 inhibited biofilm growth in the largest number of bacterial strains (5, 5 and 6 out of 13 strains, respectively).

Histophilus somnus (Hs) [17] = type: cell-based; remark: listed apart in the source
Experimental: as §2

[18] = tested on: Mannheimia haemolytica (Mh); type: cell-based; remark: listed apart in the source
Experimental: as §2

[19] = tested on: Pasteurella multocida (Pm); type: cell-based; remark: listed apart in the source
Experimental: as §2

[20] = tested on: Pseudomonas aeruginosa (Pa); type: cell-based; remark: listed apart in the source
Experimental: as §2

[21] = tested on: Staphylococcus epidermidis (Se); type: cell-based; remark: listed apart in the source
Experimental: as §2

[22] = tested on: Staphylococcus pseudintermedius (Sp); type: cell-based; remark: listed apart in the source
Experimental: as §2

[23] = tested on: Streptococcus agalactiae (Sa); type: cell-based; remark: listed apart in the source
Experimental: as §2

[24] = tested on: Streptococcus dysgalactiae (Sd); type: cell-based; remark: listed apart in the source
Experimental: as §2

Streptococcus suis (Ss) [25] = type: cell-based; remark: listed apart in the source
Experimental: as §2

[26] = tested on: Streptococcus uberis (Su); type: cell-based; remark: listed apart in the source
Experimental: as §2

E. coli (Ec) [27] = type: cell-based; settings: Ec; remark: listed apart in the source
Experimental: as §2
(§3) In addition, several peptides expressed preferential activity vs. biofilms (MBIC) cf. planktonic cells (MIC) (Table 20).

S. aureus (Sau) [28] = type: cell-based; settings: Sau; remark: listed apart in the source
Experimental: as §2, §3

[29] = tested on: planktonic methicillin resistant S. aureus; assay: microbe, parasite or virus in culture; type: cell-based, Staphylococcus aureus; settings: planktonic methicillin resistant
PBMCs = assay: Cytotoxicity towards PBMCs, lactate dehydrogenase (LDH) release assay (Tables 6, 7); settings: SPOT synthesized peptide ~25 μM, PBMCs from 3 human donors; Table 6

Substance	MIC Bb [3]	MIC Hs (Histophilus somnus (Hs) [4])	MIC Mh [5]	MIC Pm [6]	MIC Pa [7]	MIC Se [8]	MIC Sp [9]	MIC Sa [10]	MIC Sd [11]	MIC Ss (Streptococcus suis (Ss) [12])	MIC Su [13]	MIC E. coli (E. coli (Ec) [14])	MIC Ec (E. coli (Ec) [14])	MIC S. aureus (S. aureus (Sau) [15])	MIC Sau (S. aureus (Sau) [15])	MBIC [16]	MBIC (Histophilus somnus (Hs) [17])	MBIC [18]	MBIC [19]	MBIC [20]	also measured
IWLRLKVVLKRK (not fully specified; also: D-amino acid(s), positions not given here) [Peptide D-3006]																					peptide concentration that inhibited more than 90% of adhered biofilm biomass, E. coli (O157:H7) (E. coli O157:H7): 2 µM; peptide concentration that inhibited more than 90% of adhered biofilm biomass, S. typhimurium (ATCC 14028) [1]: 2 µM; peptide concentration that inhibited more than 90% of adhered biofilm biomass, S. aureus (C623) [2]: 4 µM; peptide concentration that inhibited more than 90% of adhered biofilm biomass, P. aeruginosa (PAO1) (P. aeruginosa (PAO1)): 2 µM
KIVIRIILQVIK-NH2 [Peptide 3015, KIVIRIILQVIK]	64 µg/mL	>64 µg/mL	>64 µg/mL	64 µg/mL	64 µg/mL	>64 µg/mL	16 µg/mL	>64 µg/mL	32 µg/mL	64 µg/mL	64 µg/mL	>64 µg/mL	>64 µg/mL	>64 µg/mL	>64 µg/mL	>64 µg/mL	16 µg/mL	16 µg/mL	1 µg/mL	32 µg/mL	MBIC [21]: 2 µg/mL; MBIC [22]: 8 µg/mL; MBIC [23]: >64 µg/mL; MBIC [24]: 4 µg/mL; MBIC (Streptococcus suis (Ss) [25]): 64 µg/mL; MBIC [26]: 4 µg/mL; MBIC (E. coli (Ec) [27]): 64 µg/mL; MBIC E. coli (E. coli (Ec) [27]): 64 µg/mL; MBIC (S. aureus (Sau) [28]): 64 µg/mL; MBIC S. aureus (S. aureus (Sau) [28]): 64 µg/mL; MIC (μM) MHB [29]: 64 µM; MIC (μM) TSB with 1% Glucose [29]: >64 µM; % Toxicity (LDH Release) (PBMCs): −3.8%
LAGLIVKWAGVR-NH2 [Peptide 3017, LAGLIVKWAGVR]	>64 µg/mL	>64 µg/mL	>64 µg/mL	>64 µg/mL	>64 µg/mL	>64 µg/mL	>64 µg/mL	32 µg/mL	>64 µg/mL	>64 µg/mL	64 µg/mL	>64 µg/mL	>64 µg/mL	>64 µg/mL	>64 µg/mL	>64 µg/mL	32 µg/mL	>64 µg/mL	>64 µg/mL	>64 µg/mL	MBIC [21]: >64 µg/mL; MBIC [22]: 64 µg/mL; MBIC [23]: >64 µg/mL; MBIC [24]: >64 µg/mL; MBIC (Streptococcus suis (Ss) [25]): >64 µg/mL; MBIC [26]: 16 µg/mL; MBIC (E. coli (Ec) [27]): >64 µg/mL; MBIC E. coli (E. coli (Ec) [27]): >64 µg/mL; MBIC (S. aureus (Sau) [28]): 4 µg/mL; MBIC S. aureus (S. aureus (Sau) [28]): 4 µg/mL; MIC (μM) MHB [29]: >64 µM; MIC (μM) TSB with 1% Glucose [29]: >64 µM; % Toxicity (LDH Release) (PBMCs): 5.9%
LWQLWLKLKLKG-NH2 [Peptide 3013, LWQLWLKLKLKG]	16 µg/mL	2 µg/mL	>64 µg/mL	32 µg/mL	>64 µg/mL	2 µg/mL	<1 µg/mL	2 µg/mL	2 µg/mL	64 µg/mL	4 µg/mL	>64 µg/mL	>64 µg/mL	>64 µg/mL	>64 µg/mL	>64 µg/mL	4 µg/mL	>64 µg/mL	2 µg/mL	>64 µg/mL	MBIC [21]: >64 µg/mL; MBIC [22]: 1 µg/mL; MBIC [23]: 32 µg/mL; MBIC [24]: 2 µg/mL; MBIC (Streptococcus suis (Ss) [25]): 16 µg/mL; MBIC [26]: 8 µg/mL; MBIC (E. coli (Ec) [27]): >64 µg/mL; MBIC E. coli (E. coli (Ec) [27]): >64 µg/mL; MBIC (S. aureus (Sau) [28]): 32 µg/mL; MBIC S. aureus (S. aureus (Sau) [28]): 32 µg/mL; MIC (μM) MHB [29]: 32 µM; MIC (μM) TSB with 1% Glucose [29]: >64 µM; % Toxicity (LDH Release) (PBMCs): 14.1%
QLARLARVVWGL-NH2 [Peptide 3010, QLARLARVVWGL]	>64 µg/mL	64 µg/mL	>64 µg/mL	>64 µg/mL	>64 µg/mL	>64 µg/mL	64 µg/mL	>64 µg/mL	32 µg/mL	>64 µg/mL	64 µg/mL	>64 µg/mL	>64 µg/mL	>64 µg/mL	>64 µg/mL	>64 µg/mL	64 µg/mL	>64 µg/mL	4 µg/mL	>64 µg/mL	MBIC [21]: >64 µg/mL; MBIC [22]: 64 µg/mL; MBIC [23]: >64 µg/mL; MBIC [24]: 16 µg/mL; MBIC (Streptococcus suis (Ss) [25]): >64 µg/mL; MBIC [26]: 32 µg/mL; MBIC (E. coli (Ec) [27]): 32 µg/mL; MBIC E. coli (E. coli (Ec) [27]): 32 µg/mL; MBIC (S. aureus (Sau) [28]): 64 µg/mL; MBIC S. aureus (S. aureus (Sau) [28]): 64 µg/mL; MIC (μM) MHB [29]: >64 µM; MIC (μM) TSB with 1% Glucose [29]: >64 µM; % Toxicity (LDH Release) (PBMCs): −2.4%
